In patent US8227429B2, “Macrolide synthesis process and solid-state forms” (Intervet International B.V., priority 2006, dated 2012):
Where a name gives a salt, the structure may show the parent alone. Read-outs that look alike come from different tables or passages of the source.

Assays:
[1] = Dynamic vapor sorption (DVS) water uptake; format: physicochemical; details: 25° C.; for maximum water uptake: at 95% relative humidity
Protocol: Dynamic vapor sorption (“DVS”) measurements were obtained with a Projekt Messtechnik SPS11-100n water vapor sorption analyzer. The samples were placed into aluminum crucibles on a microbalance, and allowed to equilibrate at 25° C. and 50% relative humidity before initiating the following pre-defined humidity program at 25° C.: 50-95-0-50% relative humidity, and scanning with a 5% change in relative humidity per hour and with iso-humid equilibration periods at extreme values.

[2] = Thermogravimetry coupled to FTIR (TG-FTIR); format: physicochemical
Protocol: Measurements of thermogravimetry coupled to Fourier transform infrared spectroscopy (“TG-FTIR”) were obtained using a Netzsch Thermo-Microbalance TG 209 with a Bruker Vector 22 FT-IR Spectrometer using an aluminum crucible (with micro-hole or open), N2 atmosphere, heating rate of 10° C./min, and temperature range of 25-250° C.

[3] = Relative solid-state stability (Applicants' observations); format: physicochemical
[4] = Desolvation / stability on drying under vacuum
Protocol: In one experiment, the S2 crystalline solvate was prepared by dissolving the Form II polymorph of 20,23-dipiperidinyl-5-O-mycaminosyl-tylonolide (245.7 mg) in tert-butyl methyl ether (0.5 ml), and slowly evaporating a portion of the solvent at ambient temperature. After no crystals formed, additional tert-butyl methyl ether was added, followed by seeding S2 solvate crystals from the first batch. The solvent was then allowed to evaporate completely. […] In further testing, the crystals were vacuum-dried at ambient temperature for 20 hours, and then dried again under vacuum for 24 hours at about 70° C.

Thermogravimetry (TG) = format: physicochemical
Protocol: Thermogravimetry (“TG”) measurements were obtained with a Perkin Elmer TGS 2 thermogravimetric analyzer using an aluminum crucible (open), N2 atmosphere, heating rate of 10° C./min, and temperature range of 25-500° C.

Solubility in tBME = format: physicochemical

CC[C@H]1OC(=O)C[C@@H](O)[C@H](C)[C@@H](OC2OC(C)C(O)C(N(C)C)C2O)[C@@H](CCN2CCCCC2)C[C@@H](C)C(=O)/C=C/C(C)=C/[C@@H]1CN1CCCCC1 (stereo in doubt) [Form II polymorph]
maximum water uptake [1]: about 2 % (by weight) | temperature at which decomposition began [2]: greater than 220 °C | weight loss ([2]; mainly in the temperature range of from 50 to 100° C., attributed to water loss): 0.7%

CC[C@H]1OC(=O)C[C@@H](O)[C@H](C)[C@@H](OC2OC(C)C(O)C(N(C)C)C2O)[C@@H](CCN2CCCCC2)C[C@@H](C)C(=O)/C=C/C(C)=C/[C@@H]1CN1CCCCC1 (stereo in doubt) [Form I polymorph]
maximum water uptake [1]: less than 1 % (by weight) | weight loss ([2]; temperature range of from 60 to 180° C., attributed to water loss): 0.6% | stability relative to other solid-state forms [3]: greater stability at ambient temperature than the other above-listed solid-state forms

CC[C@H]1OC(=O)C[C@@H](O)[C@H](C)[C@@H](OC2OC(C)C(O)C(N(C)C)C2O)[C@@H](CCN2CCCCC2)C[C@@H](C)C(=O)/C=C/C(C)=C/[C@@H]1CN1CCCCC1 (stereo in doubt) [ethyl acetate S1 crystalline solvate]
result of vacuum drying ([4]; ambient temperature): readily converted into the Form III polymorph | weight loss due to liberation of solvent [2]: approximately 4.1%

CC[C@H]1OC(=O)C[C@@H](O)[C@H](C)[C@@H](OC2OC(C)C(O)C(N(C)C)C2O)[C@@H](CCN2CCCCC2)C[C@@H](C)C(=O)/C=C/C(C)=C/[C@@H]1CN1CCCCC1 (stereo in doubt) [diethyl ketone S1 crystalline solvate]
weight loss due to liberation of solvent [2]: 10%

CC[C@H]1OC(=O)C[C@@H](O)[C@H](C)[C@@H](OC2OC(C)C(O)C(N(C)C)C2O)[C@@H](CCN2CCCCC2)C[C@@H](C)C(=O)/C=C/C(C)=C/[C@@H]1CN1CCCCC1 (stereo in doubt) [Form III polymorph]
temperature at which decomposition began (Thermogravimetry (TG)): greater than 270 °C | weight loss (Thermogravimetry (TG); up to 200° C.): less than 0.05% | water uptake ([1]; between 70 and 85% relative humidity): about 6% | weight loss ([2]; up to 220° C., most between 50 and 120° C.): 1.7%

CC[C@H]1OC(=O)C[C@@H](O)[C@H](C)[C@@H](OC2OC(C)C(O)C(N(C)C)C2O)[C@@H](CCN2CCCCC2)C[C@@H](C)C(=O)/C=C/C(C)=C/[C@@H]1CN1CCCCC1 (stereo in doubt) [ethyl formate crystalline solvate]
temperature at which desolvation was nearly completed [2]: ~130 °C | weight loss due to liberation of solvent [2]: about 7.7%

CC[C@H]1OC(=O)C[C@@H](O)[C@H](C)[C@@H](OC2OC(C)C(O)C(N(C)C)C2O)[C@@H](CCN2CCCCC2)C[C@@H](C)C(=O)/C=C/C(C)=C/[C@@H]1CN1CCCCC1 (stereo in doubt) [ethanol S1 crystalline solvate]
weight loss due to liberation of solvent ([2]; up to 200° C.): approximately 6.6%

CC[C@H]1OC(=O)C[C@@H](O)[C@H](C)[C@@H](OC2OC(C)C(O)C(N(C)C)C2O)[C@@H](CCN2CCCCC2)C[C@@H](C)C(=O)/C=C/C(C)=C/[C@@H]1CN1CCCCC1 (stereo in doubt) [tBME S2 crystalline solvate]
weight loss due to liberation of solvent [2]: 8.7-10% | solubility (Solubility in tBME; organic solvent or mixture): 40 to 50 mg/mL | solubility in tBME relative to the Form II polymorph (Solubility in tBME; solvent tBME): at least one order of magnitude less

CC[C@H]1OC(=O)C[C@@H](O)[C@H](C)[C@@H](OC2OC(C)C(O)C(N(C)C)C2O)[C@@H](CCN2CCCCC2)C[C@@H](C)C(=O)/C=C/C(C)=C/[C@@H]1CN1CCCCC1 (stereo partly shown) [tBME S2 crystalline solvate]
stability ([4]; 60° C. at 1 mbar (absolute) for 1 day): exhibits stability | result of drying under vacuum ([4]; ambient temperature and 70° C.): no loss of solvent was observed | stability relative to other solid-state forms ([3]; listed as tBME crystalline solvate): more stable than the ethyl acetate S1 crystalline solvate

CC[C@H]1OC(=O)C[C@@H](O)[C@H](C)[C@@H](OC2OC(C)C(O)C(N(C)C)C2O)[C@@H](CCN2CCCCC2)C[C@@H](C)C(=O)/C=C/C(C)=C/[C@@H]1CN1CCCCC1 (stereo in doubt) [THF S3 crystalline solvate]
weight loss due to liberation of solvent ([2]; at temperatures greater than 100° C.): about 8.1%

CC[C@H]1OC(=O)C[C@@H](O)[C@H](C)[C@@H](OC2OC(C)C(O)C(N(C)C)C2O)[C@@H](CCN2CCCCC2)C[C@@H](C)C(=O)/C=C/C(C)=C/[C@@H]1CN1CCCCC1 (stereo partly shown) [methyl acetate crystalline solvate]
temperature at which desolvation was nearly completed [2]: ~160 °C | weight loss due to liberation of solvent [2]: about 8.4%
